Data as given in patent US20120020940A1, “ANTIMICROBIAL PEPTIDES” (Helmholtz Zentrum München Deutsches Forschungszentrum Für …, priority 2008, published 2012).
No end group written: not given here.

Columns and labels:
Assay type in all cases: cell-based
[1] = system: Clavibacter michiganensis; test: MIC and lethal concentration (Example 3); conditions: Table 2
Method: (§1) In-vitro inhibition assays were performed in sterile flat-bottom 96-well plates (Greiner bio-one, Frickenhausen). Antimicrobial peptides were dissolved in 0.01% acetic acid containing 0.2% BSA (500 μg/ml), filter sterilized and stored at −20° C. For inhibition assays dilutions of peptides ranging from 5 to 200 μg/ml were prepared and 10 μl (antibacterial assay) or 20 μl (antifungal assay) of each concentration was loaded per well.
(§2) Bacteria colonies from overnight agar plate cultures were resuspended into 5 ml LB-medium or HPG-medium (OD600 nm=0.08-0.1) and diluted into LB-medium/HPG-medium (1:100). 90 μl of this suspension containing about 10^5-10^6 CFU/ml of tested bacteria were added to each well resulting in final peptide concentrations of 0, 0.5, 1, 2, 5, 10, and 20 μg/ml. […] The lowest concentration, in which there is no observable growth (>90% inhibition) is referred to as minimal inhibitory concentration (MIC). […] For each peptide concentration two identical inhibition assays were performed.

[2] = system: Pectobacterium carotovorum; test: MIC and lethal concentration (Example 3); conditions: Table 2
Method: as §1, §2

Pseudomonas corrugata = test: MIC and lethal concentration (Example 3); conditions: Table 2
Method: as §1, §2

[3] = system: Pseudomonas syringae pv. syringae; test: MIC and lethal concentration (Example 3); conditions: Table 2
Method: as §1, §2

[4] = system: Pseudomonas syringae pv. tomato; test: MIC and lethal concentration (Example 3); conditions: Table 2
Method: as §1, §2

Xanthomonas vesicatoria = test: MIC and lethal concentration (Example 3); conditions: Table 2
Method: as §1, §2

[5] = system: human immundeficiency virus (HIV); conditions: HeLa cells LC5-RIC pre-incubated 30 min with peptide, read after 72 h; read-out: IC50, concentration where the infection is decreased by 50% (compared to non-treated controls)
Method: To measure the activity of the designed oligopeptides against human immundeficiency virus (HIV) a fluorescence-based reporter system was used. HeLa cells (LC5-RIC) harbour a reporter gene, which regulates in dependency of HIV Rev and Tat proteins the synthesis of a red fluorescing protein. In this way the infection of the HeLa cells (LC5-RIC) is indicated and the infection rate can be quantified using a fluorescence microplate reader.
(§3) Antimicrobial oligopeptides were dissolved in 0.01% acetic acid containing 0.2% BSA (500 μg/ml), filter sterilized and stored at −20° C. […] (in 5% CO2). Afterwards, virus particles were added to the pre-treated HeLa cells and the infection was quantified by measuring red fluorescence with a fluorescence microplate reader after 72 h incubation. The viability of the HeLa cells was determined by measuring the activity of the mitochondrial dehydrogenase according to Lindl and Bauer (1994) and Mosmann (1983).

HeLa cells = test: Cell viability, mitochondrial dehydrogenase activity; conditions: at the IC50 concentration (6.8 μM)
Method: as §3

## LRKAKKIAKKLF-NH2 [SP10-11]
[1]; 1-2 days at 25° C.
  MIC (>90% inhibition): 5.0/5.0 μg/ml
[1]; at least 4 days of incubation
  LC, lethal concentration (100% inhibition): 5.0/5.0 μg/ml
[2]; 1-2 days at 25° C.
  MIC (>90% inhibition): >10/>10 μg/ml
[2]; at least 4 days of incubation
  LC, lethal concentration (100% inhibition): >10/>10 μg/ml
Pseudomonas corrugata; 1-2 days at 25° C.
  MIC (>90% inhibition): 0.5/0.5 μg/ml
Pseudomonas corrugata; at least 4 days of incubation
  LC, lethal concentration (100% inhibition): 0.5/0.5 μg/ml
[3]; 1-2 days at 25° C.
  MIC (>90% inhibition): 0.1 µg/mL
[3]; at least 4 days of incubation
  LC, lethal concentration (100% inhibition): 0.25 µg/mL
[4]; 1-2 days at 25° C.
  MIC (>90% inhibition): 0.5/0.5 μg/ml
[4]; at least 4 days of incubation
  LC, lethal concentration (100% inhibition): 0.5/0.5 μg/ml
Xanthomonas vesicatoria; 1-2 days at 25° C.
  MIC (>90% inhibition): 0.5 µg/mL
Xanthomonas vesicatoria; at least 4 days of incubation
  LC, lethal concentration (100% inhibition): 1.0 µg/mL
[5]
  IC50: 6.8 µM
HeLa cells
  negative/toxic effect on test cells (HeLa cells): No negative/toxic effect
